Data taken from patent publication US9458110B2, “Phenylpyrazole derivatives as potent ROCK1 and ROCK2 inhibitors” (BRISTOL-MYERS SQUIBB COMPANY, priority 2013, dated 2016).

Key:
ROCK1 = ROCK1 (Homo sapiens (Human), UniProt Q13464); assay: ROCK assay (Caliper LABCHIP peptide phosphorylation), ROCK1; assay type: biochemical; settings: 5 μM ATP, 1.5 μM peptide substrate;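 further: Read-out is separation of phosphorylated from unphosphorylated peptide, with kinase activity inhibition computed at every concentration of a dose-response series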
ROCK2 = ROCK2 (Homo sapiens (Human), UniProt O75116); assay: ROCK assay (Caliper LABCHIP peptide phosphorylation), ROCK2; assay type: biochemical; settings: 5 μM ATP, 1.5 μM peptide substrate;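 further: reaction stopped with EDTA, then phosphorylated and unphosphorylated peptide resolved by microfluidic electrophoresis, kinase inhibition computed at each compound concentration in dose-response series, DMSO under 2%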
Chain of ROCK2 (O75116 whole entry, species assumed): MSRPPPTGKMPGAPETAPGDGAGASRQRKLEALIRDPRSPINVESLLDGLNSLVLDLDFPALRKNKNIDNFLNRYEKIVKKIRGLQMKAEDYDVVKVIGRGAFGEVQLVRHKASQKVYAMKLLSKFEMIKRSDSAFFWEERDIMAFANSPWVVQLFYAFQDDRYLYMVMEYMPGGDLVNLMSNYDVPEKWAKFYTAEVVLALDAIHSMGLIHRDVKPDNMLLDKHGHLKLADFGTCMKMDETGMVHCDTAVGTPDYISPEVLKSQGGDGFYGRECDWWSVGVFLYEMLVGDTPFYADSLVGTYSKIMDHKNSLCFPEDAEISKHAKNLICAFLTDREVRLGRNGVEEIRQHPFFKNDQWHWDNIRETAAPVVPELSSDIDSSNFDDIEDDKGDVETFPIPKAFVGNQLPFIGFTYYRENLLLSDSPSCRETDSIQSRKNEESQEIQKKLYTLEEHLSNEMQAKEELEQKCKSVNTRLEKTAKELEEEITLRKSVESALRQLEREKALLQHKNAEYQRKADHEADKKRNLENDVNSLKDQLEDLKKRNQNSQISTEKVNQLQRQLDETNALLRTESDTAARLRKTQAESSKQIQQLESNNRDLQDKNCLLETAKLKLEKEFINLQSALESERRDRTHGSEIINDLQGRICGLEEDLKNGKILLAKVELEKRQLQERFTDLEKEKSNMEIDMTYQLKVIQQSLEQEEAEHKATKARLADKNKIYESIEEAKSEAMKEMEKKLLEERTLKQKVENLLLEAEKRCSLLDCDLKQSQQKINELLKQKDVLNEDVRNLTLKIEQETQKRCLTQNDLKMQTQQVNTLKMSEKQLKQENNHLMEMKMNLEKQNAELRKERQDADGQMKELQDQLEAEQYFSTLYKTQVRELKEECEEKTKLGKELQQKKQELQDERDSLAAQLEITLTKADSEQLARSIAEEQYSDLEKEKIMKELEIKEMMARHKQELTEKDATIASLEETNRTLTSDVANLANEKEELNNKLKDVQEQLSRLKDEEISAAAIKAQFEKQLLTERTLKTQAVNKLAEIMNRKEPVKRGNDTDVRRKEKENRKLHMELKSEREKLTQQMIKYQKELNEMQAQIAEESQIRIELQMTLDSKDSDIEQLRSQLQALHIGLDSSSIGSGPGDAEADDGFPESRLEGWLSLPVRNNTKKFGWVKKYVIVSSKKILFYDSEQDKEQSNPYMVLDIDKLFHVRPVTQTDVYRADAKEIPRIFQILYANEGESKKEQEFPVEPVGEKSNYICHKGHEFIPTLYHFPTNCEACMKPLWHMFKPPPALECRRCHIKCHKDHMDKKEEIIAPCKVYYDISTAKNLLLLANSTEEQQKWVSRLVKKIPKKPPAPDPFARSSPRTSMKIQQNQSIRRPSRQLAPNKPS

Chain of ROCK1 (Q13464 whole entry, species assumed): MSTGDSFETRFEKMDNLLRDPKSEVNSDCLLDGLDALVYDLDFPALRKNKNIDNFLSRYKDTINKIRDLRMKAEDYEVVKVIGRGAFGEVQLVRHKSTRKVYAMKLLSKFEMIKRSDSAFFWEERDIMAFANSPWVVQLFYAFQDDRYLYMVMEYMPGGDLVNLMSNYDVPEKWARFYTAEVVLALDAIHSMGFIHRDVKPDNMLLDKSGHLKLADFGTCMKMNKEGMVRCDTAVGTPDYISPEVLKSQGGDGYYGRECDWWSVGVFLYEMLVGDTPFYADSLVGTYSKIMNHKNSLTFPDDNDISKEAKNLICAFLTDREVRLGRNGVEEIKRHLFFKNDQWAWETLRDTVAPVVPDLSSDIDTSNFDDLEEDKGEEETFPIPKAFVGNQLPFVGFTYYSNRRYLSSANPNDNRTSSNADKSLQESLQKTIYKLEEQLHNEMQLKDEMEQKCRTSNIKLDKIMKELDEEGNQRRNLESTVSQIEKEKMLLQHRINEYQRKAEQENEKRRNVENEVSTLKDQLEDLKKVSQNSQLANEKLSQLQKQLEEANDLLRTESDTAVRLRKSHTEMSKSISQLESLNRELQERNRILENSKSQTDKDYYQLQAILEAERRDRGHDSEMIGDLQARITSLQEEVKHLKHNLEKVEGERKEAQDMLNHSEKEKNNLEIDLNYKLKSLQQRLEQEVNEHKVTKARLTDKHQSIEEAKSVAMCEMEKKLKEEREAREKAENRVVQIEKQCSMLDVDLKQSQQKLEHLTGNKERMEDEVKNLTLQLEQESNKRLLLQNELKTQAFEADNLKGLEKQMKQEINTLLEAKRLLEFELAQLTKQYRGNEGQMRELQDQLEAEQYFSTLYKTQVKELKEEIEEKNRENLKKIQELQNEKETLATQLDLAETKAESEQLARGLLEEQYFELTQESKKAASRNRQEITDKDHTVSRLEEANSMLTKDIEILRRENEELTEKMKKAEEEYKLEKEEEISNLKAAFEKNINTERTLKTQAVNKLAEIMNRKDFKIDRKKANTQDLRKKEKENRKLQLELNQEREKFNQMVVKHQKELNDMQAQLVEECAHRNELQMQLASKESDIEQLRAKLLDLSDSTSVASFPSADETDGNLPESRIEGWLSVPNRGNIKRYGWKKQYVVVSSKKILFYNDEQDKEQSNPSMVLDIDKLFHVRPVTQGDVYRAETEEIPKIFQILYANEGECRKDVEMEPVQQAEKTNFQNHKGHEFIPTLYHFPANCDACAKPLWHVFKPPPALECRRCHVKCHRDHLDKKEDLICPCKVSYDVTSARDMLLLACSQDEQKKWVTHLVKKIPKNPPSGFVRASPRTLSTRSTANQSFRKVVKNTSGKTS

With `C[C@@H](NC(=O)c1ccc(-c2cn[nH]c2)c(OC(F)F)c1)c1ccc(F)cc1` [Example 164, 3-(difluoro-methoxy)-N-[(1R)-1-(4-fluorophenyl)ethyl]-4-(1H-pyrazol-4-yl)benzamide] as the compound, how does the IC50 (ROCK1) read?
Its IC50 is 22.5 nM.

What about the IC50 (ROCK2) of the same compound?
Its IC50 is 7.49 nM.

With `COc1cc(C(=O)NC(CO)c2ccccc2F)ccc1-c1cn[nH]c1` (stereo not drawn) [Example 166, N-[1-(2-fluorophenyl)-2-hydroxyethyl]-3-methoxy-4-(1H-pyrazol-4-yl)benzamide] as the compound, how does the IC50 (ROCK1) read?
Its IC50 is 7.22 nM.

And the IC50 (ROCK2)?
Its IC50 is 2.17 nM.

How did the IC50 (ROCK1) turn out when `COc1cc(C(=O)NC(CO)c2ccccc2F)ccc1-c1cn[nH]c1` (stereo not drawn) [Example 167, N-[1-(2-fluorophenyl)-2-hydroxyethyl]-3-methoxy-4-(1H-pyrazol-4-yl)benzamide] was run?
The IC50 was 56.5 nM.

And the IC50 (ROCK2)?
Its IC50 is 16.7 nM.

Which IC50 (ROCK1) does the source give for `Cc1cc(C(=O)NC(C)c2cccc(O)n2)ccc1-c1cn[nH]c1` (stereo not drawn) [Example 168, N-[1-(6-hydroxypyridin-2-yl)ethyl]-3-methyl-4-(1H-pyrazol-4-yl)benzamide] here?
The IC50 was 130 nM.

What about the IC50 (ROCK2) of the same compound?
The IC50 was 46.7 nM.

For `COc1cc(C(=O)NC(CCN(C)C)c2ccccc2)ccc1-c1cn[nH]c1` (stereo not drawn) [Example 169, N-[3-(dimethylamino)-1-phenylpropyl]-3-methoxy-4-(1H-pyrazol-4-yl)benzamide], which IC50 (ROCK1) is on record?
Its IC50 is 4.7 nM.

And the IC50 (ROCK2)?
The IC50 was 1.93 nM.

`C=C[C@@H](NC(=O)c1ccc(-c2cn[nH]c2)c(OC)c1)c1c(F)cccc1F` [Example 170, N-[(1R)-1-(2,6-difluorophenyl)prop-2-en-1-yl]-3-methoxy-4-(1H-pyrazol-4-yl)benzamide] was tested. Which IC50 (ROCK1) did it give?
Its IC50 is 17.5 nM.

What about the IC50 (ROCK2) of the same compound?
The IC50 was 10.5 nM.

Which IC50 (ROCK1) does the source give for `COc1cc(C(=O)N[C@@H](c2c(F)cccc2F)C(O)CO)ccc1-c1cn[nH]c1` (stereo partly drawn) [Example 175, N-[(1S)-1-(2,6-difluorophenyl)-2,3-dihydroxy-propyl]-3-methoxy-4-(1H-pyrazol-4-yl)benzamide] here?
The IC50 was 34.9 nM.

And the IC50 (ROCK2)?
The IC50 was 19.3 nM.

Which IC50 (ROCK1) does the source give for `COc1cc(C(=O)NC(CCN(C)C)c2ccccc2)ccc1-c1cn[nH]c1` (stereo not drawn) [Example 178, N-[3-(dimethylamino)-1-phenylpropyl]-3-methoxy-4-(1H-pyrazol-4-yl)benzamide] here?
The IC50 was 94.2 nM.

And the IC50 (ROCK2)?
Its IC50 is 31.9 nM.

For `COc1cc(C(=O)NC(CCN(C)C)c2ccccc2)ccc1-c1cn[nH]c1` (stereo not drawn) [Example 179, N-[3-(dimethylamino)-1-phenylpropyl]-3-methoxy-4-(1H-pyrazol-4-yl)benzamide], which IC50 (ROCK1) is on record?
The IC50 was 1.53 nM.

What about the IC50 (ROCK2) of the same compound?
The IC50 was 7.75 nM.

What does the source list for `CCc1ccccc1CNC(=O)c1ccc(-c2cn[nH]c2)c(OC)c1` [Example 180, N-[(2-ethylphenyl)methyl]-3-methoxy-4-(1H-pyrazol-4-yl)benzamide]?
IC50 (ROCK1): 36.4 nM; IC50 (ROCK2): 15.3 nM

Which IC50 (ROCK1) does the source give for `C[C@@H](NC(=O)c1ccc(-c2cn[nH]c2)c(O)c1)c1ccc(F)cc1` [Example 183, N-[(1R)-1-(4-fluorophenyl)ethyl]-3-hydroxy-4-(1H-pyrazol-4-yl)benzamide] here?
Its IC50 is 2.22 nM.

What about the IC50 (ROCK2) of the same compound?
Its IC50 is 7.68 nM.

`COc1cc(-c2c[nH]nc2C)ccc1C(=O)NCc1c(F)cccc1Cl` [Example 184, N-[(2-chloro-6-fluorophenyl)methyl]-2-methoxy-4-(3-methyl-1H-pyrazol-4-yl)benzamide] was tested. Which IC50 (ROCK1) did it give?
Its IC50 is 14.2 nM.

What about the IC50 (ROCK2) of the same compound?
The IC50 was 101 nM.

Which results are given for `COc1cc(-c2cn[nH]c2)ccc1C(=O)NCc1c(F)cccc1Cl` [Example 185, N-[(2-chloro-6-fluorophenyl)methyl]-2-methoxy-4-(1H-pyrazol-4-yl)benzamide]?
IC50 (ROCK1): 26.3 nM; IC50 (ROCK2): 6.48 nM

For `C[C@@H](NC(=O)c1cc(F)c(-c2cn[nH]c2)cc1F)c1ccccc1` [Example 186, 2,5-difluoro-N-[(1R)-1-phenylethyl]-4-(1H-pyrazol-4-yl)benzamide], which IC50 (ROCK1) is on record?
The IC50 was 472 nM.

What about the IC50 (ROCK2) of the same compound?
Its IC50 is 190 nM.

Which IC50 (ROCK1) does the source give for `COc1cc(C(=O)NC(Cc2ccccc2)C(C)=O)ccc1-c1cn[nH]c1` (stereo not drawn) [Example 187, 3-methoxy-N-(3-oxo-1-phenylbutan-2-yl)-4-(1H-pyrazol-4-yl)benzamide] here?
Its IC50 is 23 nM.

What about the IC50 (ROCK2) of the same compound?
Its IC50 is 14 nM.

What does the source list for `C[C@@H](NC(=O)c1ccc(-c2cn[nH]c2)c(S(C)(=O)=O)c1)c1ccccc1` [Example 188, 3-methanesulfonyl-N-[(1R)-1-phenylethyl]-4-(1H-pyrazol-4-yl)benzamide]?
IC50 (ROCK1): > 2000 nM; IC50 (ROCK2): 208 nM

How did the IC50 (ROCK1) turn out when `COc1cc(-c2c[nH]nc2C(F)(F)F)ccc1C(=O)NCc1c(F)cccc1Cl` [Example 189, N-[(2-chloro-6-fluorophenyl)methyl]-2-methoxy-4-[3-(trifluoromethyl)-1H-pyrazol-4-yl]benzamide] was run?
Its IC50 is 39.4 nM.

What about the IC50 (ROCK2) of the same compound?
The IC50 was 42.5 nM.

What does the source list for `COc1cc(-c2cn[nH]c2)c(F)cc1C(=O)N[C@H](C)c1ccccc1` [Example 190, 5-fluoro-2-methoxy-N-[(1R)-1-phenylethyl]-4-(1H-pyrazol-4-yl)benzamide]?
IC50 (ROCK1): 37.1 nM; IC50 (ROCK2): 16.7 nM

What does the source list for `CCOc1cc(C(=O)N[C@H](C)c2ccc(F)cc2)ccc1-c1cn[nH]c1` [Example 191, 3-ethoxy-N-[(1R)-1-(4-fluorophenyl)ethyl]-4-(1H-pyrazol-4-yl)benzamide]?
IC50 (ROCK1): 205 nM; IC50 (ROCK2): 74.6 nM

`CCOc1cc(C(=O)N[C@H](CO)c2ccccc2)ccc1-c1cn[nH]c1` [Example 192, 3-ethoxy-N-[(1S)-2-hydroxy-1-phenylethyl]-4-(1H-pyrazol-4-yl)benzamide] was tested. Which IC50 (ROCK1) did it give?
The IC50 was 50.8 nM.

What about the IC50 (ROCK2) of the same compound?
Its IC50 is 11.4 nM.

How did the IC50 (ROCK1) turn out when `C[C@@H](NC(=O)c1ccc(-c2cn[nH]c2)c(C#N)c1)c1ccc(F)cc1` [Example 193, 3-cyano-N-[(1R)-1-(4-fluorophenyl)ethyl]-4-(1H-pyrazol-4-yl)benzamide] was run?
The IC50 was 873 nM.

And the IC50 (ROCK2)?
The IC50 was 289 nM.

What does the source list for `N#Cc1cc(C(=O)N[C@H](CO)c2ccccc2)ccc1-c1cn[nH]c1` [Example 194, 3-cyano-N-[(1S)-2-hydroxy-1-phenylethyl]-4-(1H-pyrazol-4-yl)benzamide]?
IC50 (ROCK1): 510 nM; IC50 (ROCK2): 152 nM

`CCOc1cc(C(=O)N[C@H](CO)c2c(F)cccc2F)ccc1-c1cn[nH]c1` [Example 195, N-[(1S)-1-(2,6-difluorophenyl)-2-hydroxyethyl]-3-ethoxy-4-(1H-pyrazol-4-yl)benzamide] was tested. Which IC50 (ROCK1) did it give?
The IC50 was 82.7 nM.

And the IC50 (ROCK2)?
The IC50 was 16 nM.

How did the IC50 (ROCK1) turn out when `O=C(N[C@H](CO)c1c(F)cccc1F)c1ccc(-c2cn[nH]c2)c(OC(F)F)c1` [Example 196, 3-(difluoro-methoxy)-N-[(1S)-1-(2,6-difluorophenyl)-2-hydroxyethyl]-4-(1H-pyrazol-4-yl)benzamide] was run?
The IC50 was 63.7 nM.

And the IC50 (ROCK2)?
The IC50 was 13.8 nM.

How did the IC50 (ROCK1) turn out when `Cc1cc(C(=O)N[C@H](CO)c2c(F)cccc2F)ccc1-c1cn[nH]c1` [Example 197, N-[(1S)-1-(2,6-difluorophenyl)-2-hydroxyethyl]-3-methyl-4-(1H-pyrazol-4-yl)benzamide] was run?
The IC50 was 52.6 nM.

And the IC50 (ROCK2)?
The IC50 was 17.6 nM.

`N#Cc1cc(C(=O)N[C@H](CO)c2c(F)cccc2F)ccc1-c1cn[nH]c1` [Example 198, 3-cyano-N-[(1S)-1-(2,6-difluorophenyl)-2-hydroxyethyl]-4-(1H-pyrazol-4-yl)benzamide] was tested. Which IC50 (ROCK1) did it give?
Its IC50 is 397 nM.

What about the IC50 (ROCK2) of the same compound?
The IC50 was 140 nM.

With `COc1c(-c2cn[nH]c2)ccc(C(=O)N[C@H](CO)c2c(F)cccc2F)c1F` [Example 199, N-[(1S)-1-(2,6-difluorophenyl)-2-hydroxyethyl]-2-fluoro-3-methoxy-4-(1H-pyrazol-4-yl)benzamide] as the compound, how does the IC50 (ROCK1) read?
The IC50 was 219 nM.

What about the IC50 (ROCK2) of the same compound?
The IC50 was 21.6 nM.

Which results are given for `O=C(N[C@H](CO)c1c(F)cccc1F)c1ccc(-c2cn[nH]c2)c(Cl)c1` [Example 200, 3-chloro-N-[(1S)-1-(2,6-difluorophenyl)-2-hydroxyethyl]-4-(1H-pyrazol-4-yl)benzamide]?
IC50 (ROCK1): 42.3 nM; IC50 (ROCK2): 12.3 nM

Which IC50 (ROCK1) does the source give for `COc1cc(-c2cn[nH]c2)ccc1C(=O)N[C@H](CO)c1c(F)cccc1F` [Example 201, N-[(1S)-1-(2,6-difluorophenyl)-2-hydroxyethyl]-2-methoxy-4-(1H-pyrazol-4-yl)benzamide] here?
Its IC50 is 362 nM.

And the IC50 (ROCK2)?
Its IC50 is 11.5 nM.

For `O=C(N[C@H](CO)c1c(F)cccc1F)c1ccc(-c2cn[nH]c2)c(C(F)(F)F)c1` [Example 202, N-[(1S)-1-(2,6-difluorophenyl)-2-hydroxyethyl]-4-(1H-pyrazol-4-yl)-3-(trifluoromethyl) benzamide], which IC50 (ROCK1) is on record?
The IC50 was 193 nM.

What about the IC50 (ROCK2) of the same compound?
The IC50 was 55.7 nM.

Which results are given for `COc1ccc(F)c(C(C)NC(=O)c2ccc(-c3cn[nH]c3)cc2OC)c1` (stereo not drawn) [Example 203, N-[1-(2-fluoro-5-methoxyphenyl)ethyl]-2-methoxy-4-(1H-pyrazol-4-yl)benzamide]?
IC50 (ROCK1): 19.2 nM; IC50 (ROCK2): 6.66 nM

With `COc1cc(-c2cn[nH]c2)ccc1C(=O)N[C@H](CO)Cc1ccccc1` [Example 204, N-[(2S)-1-hydroxy-3-phenylpropan-2-yl]-2-methoxy-4-(1H-pyrazol-4-yl)benzamide] as the compound, how does the IC50 (ROCK1) read?
Its IC50 is 9.8 nM.

And the IC50 (ROCK2)?
Its IC50 is 15.2 nM.

For `COc1cc(-c2cn[nH]c2)ccc1C(=O)NC(CO)c1ccccc1F` (stereo not drawn) [Example 205, N-[1-(2-fluorophenyl)-2-hydroxyethyl]-2-methoxy-4-(1H-pyrazol-4-yl)benzamide], which IC50 (ROCK1) is on record?
The IC50 was 345 nM.

And the IC50 (ROCK2)?
The IC50 was 5.62 nM.

Which results are given for `COc1cc(-c2cn[nH]c2)ccc1C(=O)N[C@H](C)c1ccc(F)cc1` [Example 206, N-[(1R)-1-(4-fluorophenyl)ethyl]-2-methoxy-4-(1H-pyrazol-4-yl) benzamide]?
IC50 (ROCK1): 7 nM; IC50 (ROCK2): 2.77 nM

How did the IC50 (ROCK1) turn out when `COc1cc(-c2cn[nH]c2)ccc1C(=O)NCc1c(F)cccc1F` [Example 207, N-[(2,6-difluorophenyl)methyl]-2-methoxy-4-(1H-pyrazol-4-yl)benzamide] was run?
Its IC50 is 4.25 nM.

What about the IC50 (ROCK2) of the same compound?
The IC50 was 4.39 nM.

Which results are given for `COc1cc(-c2cn[nH]c2)ccc1C(=O)NC(CCN(C)C)c1ccccc1` (stereo not drawn) [Example 208, N-[3-(dimethylamino)-1-phenylpropyl]-2-methoxy-4-(1H-pyrazol-4-yl)benzamide]?
IC50 (ROCK1): 174 nM; IC50 (ROCK2): 15.2 nM

For `COc1cc(-c2cn[nH]c2)ccc1C(=O)N[C@H](CCO)c1ccccc1` [Example 209, N-[(1R)-3-hydroxy-1-phenylpropyl]-2-methoxy-4-(1H-pyrazol-4-yl)benzamide], which IC50 (ROCK1) is on record?
Its IC50 is 6.55 nM.

What about the IC50 (ROCK2) of the same compound?
Its IC50 is 2.78 nM.

For `COc1cc(-c2cn[nH]c2)ccc1C(=O)NCc1ccc(F)cc1Cl` [Example 210, N-[(2-chloro-4-fluorophenyl)methyl]-2-methoxy-4-(1H-pyrazol-4-yl)benzamide], which IC50 (ROCK1) is on record?
The IC50 was 3.26 nM.

And the IC50 (ROCK2)?
The IC50 was 1.75 nM.

What does the source list for `O=C(NCc1ccccc1)c1ccc(-c2cn[nH]c2)cc1CCO` [Example 211, N-benzyl-2-(2-hydroxyethyl)-4-(1H-pyrazol-4-yl) benzamide]?
IC50 (ROCK1): 1880 nM; IC50 (ROCK2): 6510 nM
